For data set [1], the system named is HeLa. The data set is described as follows: Cytotoxicity against human HeLa cells assessed as reduction in cell viability after 24 hrs by MTT assay. The class given is functional, cell-based. Background: Tetrazolium dyes change colour on reduction, which living cells bring about.
Data set [2] relates to HeLa. The data set is described as follows: Cytotoxicity against human HeLa cells assessed as cell viability at 2 uM after 24 hrs by MTT assay relative to control. It counts as functional. The settings on record: read-out: Activity.
In a further data set the test system is HEK293. The data set is described as follows: Cytotoxicity against HEK293 cells assessed as reduction in cell viability at 2 to 5 uM after 24 hrs by MTT assay. Particulars: human, hek293, 24 h. It counts as cell-based.
For data set [3], the system named is HeLa. The data set is described as follows: Induction of morphological changes in human HeLa cells assessed as rounding-off of cells after 24 hrs by Hoechst 33258 staining based fluorescence microscopic analysis. The class given is functional, cell-based.
For data set [4], the system named is HeLa. The data set is described as follows: Induction of morphological changes in human HeLa cells assessed as nuclear fragmentation after 24 hrs by Hoechst 33258 staining based fluorescence microscopic analysis. The class given is functional, cell-based.
Data set [5] deals with HeLa. The data set is described as follows: Induction of morphological changes in human HeLa cells assessed as loss of cell shape after 24 hrs by Hoechst 33258 staining based fluorescence microscopic analysis. The class given is functional.
Data set [6] deals with HeLa. The data set is described as follows: Induction of reactive oxygen species generation in human HeLa cells at 5 to 10 uM after 24 hrs by DCFDA dye-based fluorescence assay. The class given is functional, cell-based.
The species named for the next data set is Bos taurus. The data set is described as follows: Binding affinity to calf thymus DNA assessed as intrinsic binding constant by UV spectrophotometry.
In data set [7] the test system is HeLa. The data set is described as follows: Cytotoxicity against human HeLa cells assessed as reduction in cell viability at 2 to 50 uM after 24 hrs by MTT assay relative to control. It counts as functional.

Active and inactive are the calls of the source. The calls are words filed in the database; no cut-off is given here.

A word on the IC50: it is the concentration at which inhibition is half-maximal. On to `CCN(CC)c1c(F)c(C#N)c2c(c1C#N)Oc1ccccc1O2`, for which the Activity entry was “Dose-dependent effect” in the data set on HeLa [1]; “Non-Toxic” in the data set on HEK293; “Dose-dependent effect” in the data set with HeLa [3]; “Dose-dependent effect” in the data set on HeLa [4]; “Dose-dependent effect” in the data set on HeLa [5]. For the same compound, the IC50 in the data set with HeLa [1] was determined as 1470 nM. The viability at 2 µM in the data set with HeLa [2] is 30%. Also, in the data set on HeLa [6], the outcome was Active. In the data set filed under Bos taurus, the logKb came out at 5.5.
As for `COC(=O)c1cccc2c1Oc1c(C#N)c(F)c(F)c(C#N)c1O2`, the Activity entry in the data set with HeLa [1] is “Dose-dependent effect”; in the data set on HEK293, “Non-Toxic”; in the data set on HeLa [3], “Dose-dependent effect”; in the data set with HeLa [4], “Dose-dependent effect”; in the data set on HeLa [5], “Dose-dependent effect”. In the data set with HeLa [1], the IC50 was determined as 1570 nM. Besides, the viability at 2 µM with HeLa [2] was determined as 35%. For the same compound, the outcome with HeLa [6] was Active. Also, the logKb in the data set listed under Bos taurus was 6.
For `N#Cc1c(F)c(F)c(C#N)c2c1Oc1ccccc1O2`, the Activity result in the data set with HeLa [1] was “Dose-dependent effect”; with HEK293, “Non-Toxic”; in the data set on HeLa [7] it was 70 - 80%. For the same compound, the half-inhibitory concentration (IC50) in the data set on HeLa [1] is 9620 nM.
Consider `N#Cc1c(F)c(F)c2c(c1C#N)Oc1ccccc1O2`, for which the Activity entry is “Dose-dependent effect” with HeLa [1] and “Non-Toxic” in the data set on HEK293. In the data set on HeLa [1], the IC50 was 42200 nM.
In the case of `CC/C(=C(\c1ccccc1)c1ccc(OCCN(C)C)cc1)c1ccccc1` [TAMOXIFEN], in the data set with HeLa [1], the IC50 stood at 8850 nM.
With `COc1c(F)c(C#N)c2c(c1C#N)Oc1ccccc1O2`, the Activity result in the data set on HeLa [1] was “Dose-dependent effect”; in the data set with HEK293 it was “Non-Toxic”; in the data set on HeLa [3], “Dose-dependent effect”; in the data set with HeLa [4] it was “Dose-dependent effect”; with HeLa [5] it was “Dose-dependent effect”. The half-inhibitory concentration (IC50) in the data set with HeLa [1] worked out at 1450 nM. The viability at 2 µM in the data set on HeLa [2] is 30%. Moreover, in the data set with HeLa [6], the result was Active. The logKb in the data set filed under Bos taurus stood at 5.38.
For `COC(=O)c1ccc2c(c1)Oc1c(C#N)c(F)c(F)c(C#N)c1O2`, the Activity entry in the data set on HeLa [1] is “Dose-dependent effect”; with HEK293, “Non-Toxic”; with HeLa [3] it was “Dose-dependent effect”; with HeLa [4], “Dose-dependent effect”; in the data set on HeLa [5] it was “Dose-dependent effect”. For the same compound, the IC50 in the data set with HeLa [1] was 2990 nM. In the data set on HeLa [2], the viability at 2 µM came to 50%. Besides, in the data set with HeLa [6], the outcome was Active. Moreover, in the data set filed under Bos taurus, the logKb worked out at 5.39.
Take `N#Cc1cc2c(cc1C#N)Oc1cc([N+](=O)[O-])ccc1O2`: the Activity with HeLa [7] is 70 - 80%.
`O=c1[nH]cc(F)c(=O)[nH]1` [FLUOROURACIL]: in the data set on HeLa [1], the IC50 was found to be 2900 nM.
In the case of `N#Cc1cc2c(cc1C#N)Oc1ccccc1O2`, the Activity entry in the data set with HeLa [1] was “Dose-dependent effect”; in the data set with HEK293, “Non-Toxic”; in the data set with HeLa [7] it was 70 - 80%.
Consider `N#Cc1cc2c(cc1C#N)Oc1cc(Br)ccc1O2`, for which the results for the Activity result in the data set with HeLa [1], in the data set with HEK293 and in the data set with HeLa [7] were “Dose-dependent effect”, “Non-Toxic” and 70 - 80%, respectively. The IC50 in the data set with HeLa [1] came out at 8820 nM.

For the origin of these results see ChEMBL document CHEMBL4043198, “Synthesis and electronic properties of ester substituted 1,4-dicyanodibenzodioxins and evaluation of anti-proliferative activity of all isomeric 1,2-, 2,3- and 1,4-dicyanodibenzodioxins against HeLa cell line” (Bioorg Med Chem Lett, 2017).
